Series [1] is described as follows: Half life in C57BL/6 mouse whole blood at 100 uM by LC-MS/MS analysis. In kind it is ADME, tissue-based.
The target of series [2] is Chymotrypsin-like elastase family member 1 (Sus scrofa, UniProt P00772). The series is described as follows: Enzymatic stability assessed as porcine type 4 pancreatic elastase-mediated compound hydrolysis by measuring parent compound remaining at 100 uM incubated for 1 hr by LC-MS/MS analysis. Type of series: ADME. The settings on record: pig, read-out: Stabilty.
Series [3] deals with Proprotein convertase subtilisin/kexin type 9 (Homo sapiens, UniProt Q8NBP7). The series is described as follows: Inhibition of AlexaFluor647-tagged cyclic peptide binding to avi-tagged-biotinylated human PCSK9 measured after 2 hrs by Lance Streptavidin Europium based FRET assay.
A short description of series [4]: Enzymatic stability assessed as bovine pancreatic trypsin-mediated compound hydrolysis by measuring parent compound remaining at 100 uM incubated for 1 hr by LC-MS/MS analysis. In kind it is ADME, Bos taurus. Particulars: cattle, read-out: Stabilty.
Series [5] is described as follows: Half life in cynomolgus monkey whole blood at 100 uM by LC-MS/MS analysis. In kind it is ADME, tissue-based, Macaca fascicularis.
Series [6] is described as follows: Enzymatic stability assessed as porcine pepsin-mediated compound hydrolysis by measuring parent compound remaining at 100 uM incubated for 1 hr by LC-MS/MS analysis. Particulars: pig, read-out: Stabilty. Type of series: ADME, Sus scrofa.
The next series deals with Chymotrypsinogen A (Bos taurus, UniProt P00766). Kind of series: Enzymatic stability assessed as bovine pancreatic alpha-chymotrypsin-mediated compound hydrolysis by measuring parent compound remaining at 100 uM incubated for 1 hr by LC-MS/MS analysis. In kind it is ADME. Particulars: cattle, read-out: Stabilty.
The nature of series [7]: Clearance in C57BL/6 mouse at 1 mg/kg, iv by LC-MS/MS analysis. In kind it is ADME, organism-based. Particulars: in vivo.
A short description of series [8]: Protein binding in mouse plasma at 2.5 uM measured after 4 hrs by equilibrium dialysis based LC-MS/MS analysis. In kind it is ADME, cell-free. Particulars: read-out: PPB (converted).
Series [9] in a line: Volume of distribution at steady state in C57BL/6 mouse at 1 mg/kg, iv by LC-MS/MS analysis. Type of series: ADME, organism-based. The settings on record: in vivo, read-out: Vdss.
Series [10] can be described thus: AUC (0 to infinity) in C57BL/6 mouse at 1 mg/kg, iv by LC-MS/MS analysis. Also on record: route intravenous, time infinity, dose 1 mg/kg. The settings on record: C57BL/6, mouse, in vivo. Type of series: ADME, organism-based.
Series [11] is described as follows: Cytotoxicity against Wistar rat isolated peritoneal cells assessed as reduction in cell viability up to 60 uM measured after 30 mins. In kind it is cell-based. Particulars: peritoneal macrophage cell, 0.5 h.
Series [12] can be described thus: Half life in C57BL/6 mouse at 1 mg/kg, iv by LC-MS/MS analysis. In kind it is ADME, organism-based. Particulars: in vivo.
A short description of series [13]: Induction of mast cell degranulation in Wistar rat isolated peritoneal cells assessed as effect on histamine release measured after 30 mins. In kind it is tissue-based. The settings on record: Rattus norvegicus, Wistar, Mast cell, 0.5 h; read-out: EC50.
The nature of series [14]: AUC (0 to X) in C57BL/6 mouse at 1 mg/kg, iv by LC-MS/MS analysis. Particulars: in vivo. Further details: dose 1 mg/kg. In kind it is ADME, organism-based.
Another series deals with PCSK9/LDLR (Homo sapiens, UniProt Q8NBP7). Kind of series: Inhibition of avi-tagged-biotinylated human PCSK9 interaction with His-tagged human LDLR EGFa domain by LANCE Ulight Streptavidin based TR-FRET assay. In kind it is protein assay.

pEC50, pKi: −log10 of the molar value. Numbered stars: 1 amine (or outer) side, 2 acyl side, 3 side chain; on linkers, the order of the positions; unused ones are H or OH. Bridge positions count the residues as written; N and C are the ends. Square brackets hold non-standard residues; d marks the D form. Peptide text beside a SMILES is read from it. Trp(5-F) = N[C@@H](Cc1c[nH]c2ccc(F)cc12)C(=O)O; X3 = O=C(CCSCc1cc(F)cc(CSCCN[*:1])c1)[*:2]; mXylylene = c1cc(C[*:1])cc(C[*:2])c1; αMeP = C[C@@]1(C(=O)O)CCCN1; Mpa = O=C(O)CCS

Chymotrypsin-like elastase family member 1, sequence (P00772 whole entry): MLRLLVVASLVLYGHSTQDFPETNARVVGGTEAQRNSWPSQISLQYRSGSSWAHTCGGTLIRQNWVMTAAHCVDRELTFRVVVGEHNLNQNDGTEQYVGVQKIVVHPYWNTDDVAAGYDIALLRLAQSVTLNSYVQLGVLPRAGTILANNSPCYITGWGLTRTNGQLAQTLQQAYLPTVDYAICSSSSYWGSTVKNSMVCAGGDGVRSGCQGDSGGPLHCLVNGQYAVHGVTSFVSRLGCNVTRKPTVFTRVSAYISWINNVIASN
PCSK9/LDLR, sequence (Q8NBP7 31-152 limits assumed): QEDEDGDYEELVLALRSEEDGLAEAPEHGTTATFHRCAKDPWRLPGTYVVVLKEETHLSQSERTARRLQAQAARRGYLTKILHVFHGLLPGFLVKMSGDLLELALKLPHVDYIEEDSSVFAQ
PCSK9/LDLR, sequence (Q8NBP7 153-692 limits assumed): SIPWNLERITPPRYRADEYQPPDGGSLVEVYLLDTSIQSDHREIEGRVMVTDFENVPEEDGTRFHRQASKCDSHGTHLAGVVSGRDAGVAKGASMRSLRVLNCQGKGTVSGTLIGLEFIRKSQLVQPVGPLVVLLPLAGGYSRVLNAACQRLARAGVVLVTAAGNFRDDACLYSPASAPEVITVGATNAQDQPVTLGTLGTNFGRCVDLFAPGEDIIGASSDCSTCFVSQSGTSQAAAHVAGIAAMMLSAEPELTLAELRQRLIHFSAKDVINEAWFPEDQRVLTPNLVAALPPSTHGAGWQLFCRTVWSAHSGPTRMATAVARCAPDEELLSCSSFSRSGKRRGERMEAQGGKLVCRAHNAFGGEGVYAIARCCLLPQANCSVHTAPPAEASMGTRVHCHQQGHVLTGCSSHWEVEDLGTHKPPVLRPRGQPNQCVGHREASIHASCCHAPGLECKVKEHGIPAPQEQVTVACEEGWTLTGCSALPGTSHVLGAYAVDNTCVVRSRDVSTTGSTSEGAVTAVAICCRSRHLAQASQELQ
PCSK9/LDLR, sequence (P01130 22-860 partner limits assumed): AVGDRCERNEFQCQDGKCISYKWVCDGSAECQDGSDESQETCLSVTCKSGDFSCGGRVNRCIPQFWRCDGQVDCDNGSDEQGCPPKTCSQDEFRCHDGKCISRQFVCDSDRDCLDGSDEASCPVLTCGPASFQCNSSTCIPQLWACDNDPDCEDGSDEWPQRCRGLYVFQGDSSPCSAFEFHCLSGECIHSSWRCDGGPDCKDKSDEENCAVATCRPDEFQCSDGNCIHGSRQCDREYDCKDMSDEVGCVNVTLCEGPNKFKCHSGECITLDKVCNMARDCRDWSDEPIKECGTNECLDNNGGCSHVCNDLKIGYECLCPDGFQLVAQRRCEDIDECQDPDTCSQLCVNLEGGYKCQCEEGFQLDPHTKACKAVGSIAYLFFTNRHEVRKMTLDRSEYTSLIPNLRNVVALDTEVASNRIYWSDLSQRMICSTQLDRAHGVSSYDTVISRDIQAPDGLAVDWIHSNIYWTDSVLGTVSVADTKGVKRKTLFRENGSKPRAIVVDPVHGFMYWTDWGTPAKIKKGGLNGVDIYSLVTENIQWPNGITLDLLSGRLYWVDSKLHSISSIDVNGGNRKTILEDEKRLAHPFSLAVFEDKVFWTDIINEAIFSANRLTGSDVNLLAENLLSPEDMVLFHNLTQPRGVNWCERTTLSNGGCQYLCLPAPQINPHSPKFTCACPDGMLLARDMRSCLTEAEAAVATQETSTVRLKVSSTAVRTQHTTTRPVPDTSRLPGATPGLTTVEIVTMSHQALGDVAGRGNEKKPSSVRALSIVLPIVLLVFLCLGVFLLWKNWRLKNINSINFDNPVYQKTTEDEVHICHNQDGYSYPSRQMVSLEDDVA
Proprotein convertase subtilisin/kexin type 9, sequence (Q8NBP7 31-152 limits assumed): as the sequence (Q8NBP7 31-152 limits assumed) above
Proprotein convertase subtilisin/kexin type 9, sequence (Q8NBP7 153-692 limits assumed): as the sequence (Q8NBP7 153-692 limits assumed) above

On to `C[C@H]1NC(=O)[C@H](CCCCN)NC(=O)CCSCc2cc(F)cc(c2)CSCCNC(=O)[C@]2(C)CCCN2C(=O)[C@H](Cc2ccc(O)cc2)NC(=O)[C@H](Cc2cnc[nH]2)NC(=O)[C@H](CC(=O)O)NC(=O)[C@H](Cc2c[nH]c3ccc(F)cc23)NC(=O)[C@H](Cc2c[nH]c3ccc(F)cc23)NC1=O` (cyclo(DHY[αMeP][X3]K[dA][Trp(5-F)][Trp(5-F)])), for which the half-life at 100 µM in series [1] and in series [5] was more than 6 h each time. The remaining at 1 h, 100 µM amounted to 96.5% in series [2], 91% in series [4], 96.6% in series [6] and 20.1% on Chymotrypsinogen A. Further, in series [3], the pKi is 8.82.
For the molecule `COc1ccc(C[C@@H]2NC(=O)[C@H]([C@@H](C)OC)NC(=O)[C@@H]3CCC(=O)NCc4cccc(c4)C[C@H](NC(=O)[C@@H](C)NC(=O)[C@H](C)NC(=O)CCSCc4cccc(c4)CSCCNC(=O)[C@]4(C)CCCN4C2=O)C(=O)N[C@@H](Cc2c[nH]c4ccc(F)cc24)C(=O)N3C)cc1`, the half-life at 100 µM in series [1] and in [5] was more than 6 h in each case. Besides, the remaining at 1 h, 100 µM in series [2] turned out to be 98.8%; in [4], 97.6%; in [6], 94.4%; at Chymotrypsinogen A, 95.7%. In addition, in [3], the negative logarithm of the Ki (pKi) was 7.97.
As for `NCCCC[C@@H]1NC(=O)CCSCc2cccc(c2)CSC[C@@H](C(N)=O)NC(=O)[C@@H]2CCCN2C(=O)[C@H](Cc2ccc(O)cc2)NC(=O)[C@H](Cc2c[nH]cn2)NC(=O)[C@H](CC(=O)O)NC(=O)[C@H](Cc2c[nH]c3ccc(F)cc23)NC(=O)[C@H](Cc2c[nH]c3ccc(F)cc23)NC(=O)CNC1=O`, in [1], the half-life at 100 µM was determined as 1.05 h. Further, the clearance in series [7] was found to be 3.1 L/h/kg. The fraction unbound at 4 h, 2.5 µM in [8] was 0.0498. Besides, the remaining at 1 h, 100 µM in series [2] is 60.7%; in series [4], 1.2%; in series [6] it was 95%; on Chymotrypsinogen A, 12%. Also, the Vd in series [9] was found to be 0.7 L/kg. In series [10], the AUC(0-inf) is 242 nM·h. The Activity entry in [11] is “Non-Toxic”. Besides, in series [12], the half-life is 1.04 h. Further, in series [13], the pEC50 is 5.18. Also, in [14], the AUC came to 241 nM·h. The molecule also showed a pKi at PCSK9/LDLR of 6.96.
Turning to `C[C@@]12CCCN1C(=O)[C@H](Cc1ccc(O)cc1)NC(=O)[C@H](Cc1cnc[nH]1)NC(=O)[C@H](CC(=O)O)NC(=O)[C@H](Cc1c[nH]c3ccc(F)cc13)NC(=O)[C@H](Cc1c[nH]c3ccc(F)cc13)NC(=O)CNC(=O)[C@H](CCCCN)NC(=O)CCSCc1cccc(c1)CSC[C@@H](C(N)=O)NC2=O` ([Mpa]KG[Trp(5-F)][Trp(5-F)]DHY[αMeP]C-NH2; linker 1-10 via mXylylene), the half-life at 100 µM in [1] is 5.19 h; in [5], more than 6 h. Moreover, in series [7], the clearance was 3.92 L/h/kg. Moreover, the fraction unbound at 4 h, 2.5 µM in [8] was 0.0515. Also, the remaining at 1 h, 100 µM came out at 52.7% in [2], 0.9% in series [4], 94% in [6] and 10.9% on Chymotrypsinogen A. Also, the pKi in series [3] was 8.40; on PCSK9/LDLR it was 7.85. Also, in series [9], the Vd is 1.2 L/kg. Further, in series [10], the total exposure AUC(0-inf) stood at 181 nM·h. Besides, the Activity entry in series [11] is “Non-Toxic”. Besides, the half-life in series [12] was 0.33 h. Besides, in series [13], the pEC50 was 5.18. The AUC in [14] amounted to 185 nM·h.
For `COc1ccc(C[C@@H]2NC(=O)[C@H]([C@@H](C)O)NC(=O)[C@@H]3CCC(=O)NCc4cccc(c4)C[C@H](NC(=O)[C@@H](C)NC(=O)[C@H](C)NC(=O)CCSCc4cccc(c4)CSCCNC(=O)[C@]4(C)CCCN4C2=O)C(=O)N[C@@H](Cc2c[nH]c4ccc(F)cc24)C(=O)N3)cc1`, the figures for the half-life at 100 µM in series [1] and in series [5] were more than 6 h and 1.88 h, respectively. Moreover, the clearance in [7] is 0.96 L/h/kg. The fraction unbound at 4 h, 2.5 µM in [8] is 0.015. Further, the remaining at 1 h, 100 µM was found to be 100% in [2], 100% in series [4], 98.2% in [6] and 2.5% at Chymotrypsinogen A. The molecule further showed a pKi in series [3] of 8.82. For the same molecule, the Vd in series [9] worked out at 0.23 L/kg. The molecule further displayed a total exposure AUC(0-inf) in [10] of 841 nM·h. Besides, the half-life in [12] was 0.66 h. This molecule also came in with an AUC in series [14] of 840 nM·h.
Consider `CO[C@H](C)[C@@H]1NC(=O)[C@@H]2CCCN2C(=O)[C@H](Cc2c[nH]c3ccc(F)cc23)NC(=O)[C@H](Cc2c[nH]c3ccc(F)cc23)NC(=O)CNC(=O)[C@H](CCCCN)NC(=O)CCSCc2cccc(c2)CSC[C@@H](C(N)=O)NC(=O)[C@]2(C)CCCN2C(=O)[C@H](Cc2ccc(O)cc2)NC1=O` ([Mpa]KG[Trp(5-F)][Trp(5-F)]PT(Me)Y[αMeP]C-NH2; linker 1-10 via mXylylene), for which the results for the half-life at 100 µM in series [1] and in series [5] were 1.03 h and 3.1 h, respectively. Further, the remaining at 1 h, 100 µM in series [2] came to 56%; in [4], 1.2%; in series [6], 99.5%; at Chymotrypsinogen A, 91%. In addition, the pKi in [3] is 8.00.
In [1], `CC(C)[C@H]1NC(=O)[C@H](CCCCN)NC(=O)CCSCc2cccc(c2)CSCCNC(=O)[C@]2(C)CCCN2C(=O)[C@H](Cc2ccc(O)cc2)NC(=O)[C@H](Cc2cnc[nH]2)NC(=O)[C@H](CC(=O)O)NC(=O)[C@H](Cc2c[nH]c3ccc(F)cc23)NC(=O)[C@H](Cc2c[nH]c3ccc(F)cc23)NC1=O` came in with a half-life at 100 µM of more than 6 h. For the same molecule, the clearance in series [7] was 0.277 L/h/kg. In [8], the fraction unbound at 4 h, 2.5 µM was 0.001. The remaining at 1 h, 100 µM stood at 100% in series [2], 94.3% in series [4], 100% in [6] and 76.4% at Chymotrypsinogen A. For the same molecule, the pKi is 8.20 in series [3] and 7.75 on PCSK9/LDLR. Further, in series [9], the Vd amounted to 0.1 L/kg. The molecule also displayed an AUC(0-inf) in [10] of 2510 nM·h. In addition, the half-life in series [12] was 0.25 h. The molecule further gave an AUC in series [14] of 2490 nM·h.
As for `C[C@H]1NC(=O)[C@H](CCCCN)NC(=O)CCSCc2cccc(c2)CSCCNC(=O)[C@]2(C)CCCN2C(=O)[C@H](Cc2ccc(O)cc2)NC(=O)[C@H](Cc2cnc[nH]2)NC(=O)[C@H](CC(=O)O)NC(=O)[C@H](Cc2c[nH]c3ccc(F)cc23)NC(=O)[C@H](Cc2c[nH]c3ccc(F)cc23)NC1=O`, the half-life at 100 µM in series [1] is 3.1 h; in series [5], more than 6 h. The molecule further yielded a clearance in series [7] of 1.45 L/h/kg. In addition, the fraction unbound at 4 h, 2.5 µM in series [8] is 0.0077. Besides, the remaining at 1 h, 100 µM in series [2] was determined as 99.1%; in [4], 79.5%; in series [6] it was 93.7%; on Chymotrypsinogen A, 42.7%. For the same molecule, the pKi in series [3] was 8.38; at PCSK9/LDLR, 7.63. The Vd in [9] stood at 0.29 L/kg. The AUC(0-inf) in series [10] is 492 nM·h. The molecule also showed a half-life in [12] of 0.78 h. In series [14], the AUC was determined as 491 nM·h.

The values are drawn from ChEMBL document CHEMBL4699634, “Series of Novel and Highly Potent Cyclic Peptide PCSK9 Inhibitors Derived from an mRNA Display Screen and Optimized via Structure-Based Design” (J Med Chem, 2020).
